“Also recorded” adds a separate entry of the source. Marks after values point to notes of the source that are not given here. Square brackets hold non-standard residues; d marks the D form. Peptide text beside a SMILES is read from it. Nle = CCCC[C@H](N)C(=O)O

Series [1] can be described thus: Pharmacokinetics of modified GLP-2 variants in rats. In kind it is in vivo. Particulars: rat, serum, peptide dose 15 mg/kg.
The subject of series [2] is intestine epithelium (crypts plus villi). As to the kind of experiment: Crypts plus villi length, histopathology of small intestine. In kind it is in vivo, SD rats. Here is the method:
In addition to PEG30-FMS-V4 and PEG30-Fmoc-V4 that have been pharmacology evaluated by small intestinal weight evaluation (As shown in Example 5), four other reversible PEGylated variant 4 (“V4”) conjugates and two reversible linker-V4 conjugates were synthesized. All the above were injected to 6 normal SD rats/group once at 2 mg/kg (peptide dose), while on the 6th day, animals were scarified, and the small intestine was weighted followed by histopathology evaluation. […] Therefore, slices from three areas of the intestine (duodenum, jejunum and ilium) were stained with hematoxylin and eosin and at least 7 Crypts+Villi length/slice were measured. The averaged Villi+Crypt length of each treatment group (n=6) was compared to the vehicle group (negative control) and calculated as percentage increase over vehicle. […]
An additional study to evaluate the efficacy and the longevity of V4 and Cys-FMS-V4 was conducted (Study reference 15204) in which the animals were sacrificed on Days 6 (N=6), 10 (N=4) and 14 (N=4). This experiment measured the pharmacological response compared to the commercially approved SBS treatment drug Gattex. In addition, two new conjugates were tested by conjugating V4 to reduced OSu-linker and Cys-FMS-V4 purified from resin. The animals were injected with a single SC injection at Day 1 with 2 mg/kg peptide content of V4, Cys-FMS-V4, FMS-OSu-V4, Apraglutide and Glepaglutide while Gattex was SC injected daily at 2.5 mg/kg peptide content. […]

A short description of series [3]: Solubility and stability in different buffer systems, concentrations, incubation and freeze-thaw. Particulars: Histidine and NaPi, pH 6.8 to 7.5; 1-10 mg/mL; up to 3 days at 37° C.; up to three freeze-thaw cycles. In kind it is physicochemical.
A further series relates to small intestine. Description: Intestine weight model in rats. It counts as in vivo, SD rats. Particulars: for Small intestine weight increase over vehicle (%): MAL-FMS-V4 compared to Vehicle 2. In a few lines: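 Rat intestinal growth model: conjugates given s.c. at 0.5–8.0 mg/kg peptide dose, as one injection, on days 1 and 3, or every 6 days; small intestine weighed on day 3, 6, 7, 10, 12 or 14. Histology (H&E, duodenum/jejunum/ileum) gave crypt+villus length. Both reported as % increase over vehicle.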

Series [4] is described as follows: Stability of GLP-2 analogues on incubation at 37° C. (appearance, O.D. reading, RP-HPLC). It counts as physicochemical. Particulars: following 48 h incubation at 37° C. The method, then: The GLP-2 analogues were tested for stability via appearance, O.D. reading (A.280, and A.325) and RP-HPLC (purity, and peak area) following t=0, 1 day, and 48 h incubation at 37° C.

[5] abbreviates: Study 15205, single SC 0.5, 2.0 or 8.0 mg/kg, Days 3, 7 and 14.

For the compound `CCCC[C@H](NC(=O)[C@H](CCC(=O)O)NC(=O)[C@H](CC(=O)O)NC(=O)[C@H](CO)NC(=O)[C@H](Cc1ccccc1)NC(=O)[C@H](CO)NC(=O)CNC(=O)[C@H](CCC(=O)O)NC(=O)CNC(=O)[C@@H](N)Cc1c[nH]cn1)C(=O)N[C@@H](CC(N)=O)C(=O)N[C@H](C(=O)N[C@H](C(=O)N[C@@H](CC(C)C)C(=O)N[C@@H](CC(=O)O)C(=O)N[C@@H](CC(C)C)C(=O)N[C@@H](CC(C)C)C(=O)N[C@@H](C)C(=O)N[C@@H](C)C(=O)N[C@@H](CCCNC(=N)N)C(=O)N[C@@H](CC(=O)O)C(=O)N[C@@H](Cc1ccccc1)C(=O)N[C@H](C(=O)N[C@@H](CC(N)=O)C(=O)N[C@@H](Cc1c[nH]c2ccccc12)C(=O)N[C@@H](CC(C)C)C(=O)N[C@H](C(=O)N[C@@H](CCC(N)=O)C(=O)N[C@H](C(=O)N[C@@H](CCCCN)C(=O)N[C@H](C(=O)N[C@H](C(=O)N[C@@H](CC(=O)O)C(N)=O)[C@@H](C)O)[C@@H](C)CC)[C@@H](C)O)[C@@H](C)CC)[C@@H](C)CC)[C@@H](C)CC)[C@@H](C)O` [Variant 4] (H-HGEGSFSDE[Nle]NTILDLLAARDFINWLIQTKITD-NH2), the half-life (commonly the time in which the quantity being followed falls by half) in series [1] was 17.5 h. The “Percent increase of Crypts+Villi length over vehicle (FIG. 3)” value in series [2] (Study 15201, 0.5 and 2 mg/kg peptide dose once, 6 days after injection) is recorded as “dose dependent pharmacology effect on the intestine epithelium”. Moreover, the “Crypts plus villi length percent increase over vehicle (FIG. 13)” value in series [2] (Study 15203, single SC 2 mg/kg on Day 1, Days 6 and 10, listed as V4, 2 mg/kg) is “the most pronounced effect on crypts plus villi length over vehicle compared to Apraglutide and Glepaglutide; also recorded: prolonged activity 10 days following a single SC injection”. Further, the “Crypts plus villi length percent increase over vehicle (FIG. 14)” value in series [2] (Study 15204, single SC 2 mg/kg on Day 1, Days 6, 10 and 14) was “the most prominent and prolonged effect on villi and crypts length up to 14 days from injection”. Also, the “Villi plus crypts length percent increase over vehicle (FIG. 16)” value in series [2] (setting [5]) was “comparable intestinotrophic response on villi and crypt length at all three dose levels”. In addition, the “CMC perspective, combining purity and solubility” value in series [3] is listed as “outperformed the rest of the peptides”. The “Small intestine weight percent increase over vehicle (FIG. 12)” value in the series with small intestine (Study 15203, single SC 2 mg/kg peptide content on Day 1, Days 6 and 10) is “the most favorable results”. Besides, the “Small intestine weight percent increase over vehicle (FIG. 15)” value with small intestine (setting [5]) was “reached maximal acute response at day 3”. For the same compound, the “Increase of intestine weight over vehicle (%)” value with small intestine (modified peptides, two injections on days 1 & 3 at 1 mg/kg, intestine weight on day 6) is listed as 89%. Also, the “Avg. small intestine weight (gr)” value with small intestine (normal SD rats, injected once at 2 mg/kg peptide dose, 6th day) is given as 7.0 gr. The “Small intestine weight increase over vehicle (%)” value is recorded as 43.0** % in the series on small intestine (normal SD rats, injected once at 2 mg/kg peptide dose, 6th day, listed as V4, 2 mg/kg) and “the most pronounced effect on the small intestine weight” in the series with small intestine (normal SD rats, injected once at 2 mg/kg peptide dose, 6th day, listed as V4 peptide, 2 mg/kg). In addition, the Solubility via appearance entry in series [4] is given as “V4: clear”.

Source of the values: US20200254065A1, “LONG-ACTING GLP-2 ANALOGS” (OPKO Biologics Ltd., priority 2019, published 2020).
